Columns and labels:
[1] = Absolute oral bioavailability and blood t1/2 of Compound A; type: in vivo, rats; conditions: rat, whole blood
Description: The absolute oral bioavailability of Compound A was determined by comparing the area-under-the-curve (“AUC”) following a 20 mg/kg IV dose of Compound A (2 ml/kg, 75% PEG solution) to a 20 mg/kg dose of Compound A dissolved in 1% methyl cellulose. Blood concentrations were determined at 0, 0.083, 0.15, 0.5, 1, 2, 4, 8, and 24 hours post-IV dose and 0, 0.5, 1, 2, 4 and 8 hours post-oral dose. Four animals were dosed orally and four animals were dosed intravenously.
In another experiment, six rats were orally dosed with 30 mg/kg of Compound A dissolved in 1% methyl cellulose. Blood samples were taken at 0.5, 1, 2, 5, 8, 12, 16, 20 and 24 hours. The apparent t1/2 for Compound A in the blood was 8 hours. This is a very long t1/2 for a drug in rats and is a good predictor of once-a-day dosing for Compound A in humans. Such a dosing regimen would be a significant therapeutic advantage in the clinic.
The blood samples were analyzed by HPLC. Detection was by UV at 262 nm. Responses were converted to concentrations by comparison to responses from calibration standards injected onto the column. The resulting concentrations were used to calculate the AUC.

[2] = Brain-blood distribution of Compound A in the mouse; type: in vivo; conditions: brain / whole blood, single po dose 30 mg/kg, n = 5, read-out: Brain/Blood Ratio (Mean ± SD)
Description: Blood-brain distribution of Compound A was assessed in the mouse, rat, and squirrel monkey by determining the concentrations of Compound A in blood and brain tissue at specific times post dose. Rats and mice received a single po dose of 30 mg/kg. The monkeys received a twice-daily 10 mg/kg po dose of Compound A for a total of 5 weeks prior to sacrifice. Brain to blood ratios for Compound A, as shown below in Table 4, show high penetration of the blood-brain barrier.

[3] = test system: fluid percussion brain injury; assay: Lateral fluid percussion injury (FPI) model of traumatic brain injury; type: in vivo; conditions: rats
Description: Compound A was tested for efficacy in an animal model of traumatic brain injury. Specifically, Compound A was evaluated in the lateral fluid percussion injury (FPI) model developed by McIntosh (McIntosh T. K., et. al (1989), Neuroscience 28:233-244). This model replicates many of the pathological aspects found in humans who have sustained traumatic brain injury. Furthermore, the damage caused by the injury is sensitive to pharmacological intervention, and thus provides a robust method for preclinical efficacy testing. In this model, animals are subjected to a fluid percussion brain injury, and are then given Compound A shortly thereafter. At specific time points, animals are evaluated using outcome measures that assess cognitive and locomoter deficits that are consequences of the injury. In addition, following behavioral analysis, animals are sacrificed and their brains assessed with respect to a variety of histopathological parameters.
For these studies, experimental parameters are used that were previously developed by Dr. Tracy McIntosh, Director of the University of Pennsylvania Head Injury Center. In these studies, male rats (350-400 g) are used for injuries. All animals are injured at a moderate/severe injury level (2.5-3.0 atm) via a craniotomy positioned over the left parietal cortex centered between Bregma and Lambda. […] Following behavioral testing, these animals are sacrificed, and their brains are analyzed for tissue damage (cortical volume loss, and neuronal cell counts), and other histopathological readouts.
The ability of Compound A to restore cognitive deficits in spatial memory and learning is evaluated at 48 hrs post injury using the Morris watermaze paradigm (Smith D. H. et al. (1991), J. Neurotrauma 8(4): 259-269; Schmidt, R. H. et al. (1999), J. Neurotrauma 16(12): 1139-1147). […] In the learning paradigm, the animals are trained to find the platform, and the reduction in latency with increasing number of training sessions is recorded. […]

Molecule `CC(=O)Nc1ccc(C(=O)NC(C)(C)C)cc1` [Compound A, N-tert-butyl-4-acetamidobenzamide] has a bioavailability ([1]; AUC of 20 mg/kg oral (1% methyl cellulose) vs 20 mg/kg IV (75% PEG), read-out: absolute bioavailability through oral dosing) of 52%, a half-life ([1]; rats, 30 mg/kg oral in 1% methyl cellulose, read-out: apparent t1/2 in the blood (converted)) of 480 min and a Kp at 0.5 h ([2]; 0.5 h post-dose) of 0.79 ± 0.05. For the same molecule, the Kp at 1 h ([2]; 1.0 h post-dose) was 0.8 ± 0.05, the Kp at 2 h ([2]; 2.0 h post-dose) was 0.76 ± 0.06 and the “effects on the other locomotor tests, beam balance and rotating pole (in words)” value ([3]; Study Number 1, 20 mg/kg/BID i.p. 7 days, 75% PEG 200) was “limited”. The “effects on the composite neuroscore (in words)” value ([3]; Study Number 1, 20 mg/kg/BID i.p. 7 days, 75% PEG 200, acute and long term) was “robust acute and long term effects” and the “effects in acute or long term locomotor or cognitive tests (in words)” value ([3]; Study Number 2, 10 and 20 mg/kg/BID i.p. 5 days, 50% PEG 400 and 25% ethanol) was “No effects of the compound were observed”.

Source: patent US20040167226A1, “Methods for the treatment of pain and traumatic injury using benzamides and compositions containing the same” (priority 2002, published 2004)
